For this experiment, the target named is T1, Purine nucleoside phosphorylase (Homo sapiens, UniProt P00491).
T1 sequence (P00491 whole entry): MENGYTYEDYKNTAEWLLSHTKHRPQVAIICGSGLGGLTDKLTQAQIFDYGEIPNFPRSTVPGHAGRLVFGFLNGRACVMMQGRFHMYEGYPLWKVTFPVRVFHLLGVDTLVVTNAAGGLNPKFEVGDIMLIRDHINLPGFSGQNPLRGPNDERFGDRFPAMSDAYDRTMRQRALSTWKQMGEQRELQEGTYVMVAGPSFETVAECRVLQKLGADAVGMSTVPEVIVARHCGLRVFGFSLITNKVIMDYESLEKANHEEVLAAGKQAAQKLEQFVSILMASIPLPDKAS
The experiment in a line: Inhibtion Assay. From the text: Inhibition assay using human PNP.

The structures appear in SMILES notation.

Broadly, the Kd is the concentration at which binding is half-saturated. `O=c1[nH]cnc2c(CN3CCC(O)C3)c[nH]c12` (stereo unspecified) [Immucillins, 11]: the affinity, expressed as Kd, was 0.383 nM.

The values are drawn from BindingDB's records for doi:10.1021/bi9005896 (Albert Einstein College of Medicine, 2009).
